{"source": "paper PMC7217877", "about": "“N-AS-triggered SPMs are direct regulators of microglia in a model of Alzheimer’s disease” (Nature Communications, 2020)", "key": {"COX2 N181A": {"biological_target": "T1, COX2 N181A (Homo sapiens, UniProt P35354, N181A)", "T1 construct": "His (N); made in house", "T1 sequence (P35354 18-604 N181A)": "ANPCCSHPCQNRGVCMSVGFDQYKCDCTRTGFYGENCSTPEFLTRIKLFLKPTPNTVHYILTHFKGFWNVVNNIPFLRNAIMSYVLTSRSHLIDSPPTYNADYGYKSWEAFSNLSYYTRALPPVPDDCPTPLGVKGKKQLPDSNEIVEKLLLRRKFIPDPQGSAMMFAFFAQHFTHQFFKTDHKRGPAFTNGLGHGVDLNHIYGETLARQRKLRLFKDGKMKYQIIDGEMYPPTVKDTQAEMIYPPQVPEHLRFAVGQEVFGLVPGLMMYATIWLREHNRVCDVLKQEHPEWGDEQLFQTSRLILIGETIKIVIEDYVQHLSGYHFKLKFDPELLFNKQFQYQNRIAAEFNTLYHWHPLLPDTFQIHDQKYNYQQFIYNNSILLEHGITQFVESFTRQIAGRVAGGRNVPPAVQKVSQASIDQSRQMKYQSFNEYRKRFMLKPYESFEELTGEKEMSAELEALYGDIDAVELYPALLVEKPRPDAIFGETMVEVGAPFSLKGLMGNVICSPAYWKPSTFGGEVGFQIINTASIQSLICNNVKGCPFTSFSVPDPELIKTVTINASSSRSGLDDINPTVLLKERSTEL", "experiment": "filter binding assay of [14C] N-AS to COX2", "settings": "0.2 uM, replicates"}, "APP/PS1 mice [1]": {"test_system": "APP/PS1 mice", "experiment": "Aβ in Lamp1+ phagolysosomes of microglia (Supplementary Fig 5a)", "assay_type": "in vivo, mouse", "settings": "N-AS vs vehicle APP/PS1", "procedure": "Thioflavin S (Sigma-Aldrich) staining was carried out according to previously described procedures. We used 6E10 (mouse, 1:100, Signet, SIG39300), anti-20G10 (mouse, 1:1000, provided by D. R. Howlett, GlaxoSmithKline, Harlow, Essex, UK) for Aβ42, anti-G30 (rabbit, 1:1000, provided by D. R. Howlett) for Aβ40, SMA (mouse, 1:400, Sigma-Aldrich, A2547), AT8 (mouse, 1:500, Thermo Fisher Scientific, MN1020), Caspase-3 (mouse, 1:200, Novus Biologicals, NB100-56708), ac-S565 (rabbit, 1:100), COX2 (mouse, 1:250, Thermo Fisher Scientific, 35-8200), Iba1 (rabbit, 1:500, Wako, 019-19941 and goat, Abcam, ab5076), NeuN (mouse, 1:500, Millipore, MAB177), GFAP (rabbit, 1:500, Dako, N1506 and chicken, 1:500, Abcam, ab4674), and Lamp1 (mouse, 1:200, Abcam, ab24170). The sections were analyzed with a laser-scanning confocal microscope (FV3000; Olympus) or with a BX51 microscope (Olympus). MetaMorph software (Molecular Devices) was used to quantification. Three-dimensional reconstruction of microglia was recorded and analyzed using IMARIS software (Bitplane)[11]. For the analysis of age-dependent microglial COX2^+ CX3CR1^+ cells in WT and APP/PS1 mice, COX2 (rabbit, 1:100, Abcam, ab15191) and CX3CR1 (mouse, 1:100, BioLegend, 149008) antibody were used and the images were acquired on Alexa 488 and APC Channel with performed using Operetta CLS and Analysis Software 4.5 (Perkin-Elmer). […]"}, "APP/PS1 mice [2]": {"test_system": "APP/PS1 mice", "experiment": "flow cytometry of blood immune cells (Supplementary Fig 5e-i)", "assay_type": "in vivo, mouse", "design": "CD11b+ CD115+ Ly6Chi / CD11b+ CD115+ Ly6Clow / CD115low Ly6Chi Ly6Ghi / CD4+ T cell / B220+ B cell: unit not given here", "procedure": "Transgenic mouse lines over-expressing the hAPP695swe (APP) and presenilin-1M146V (PS1) mutations were originated from GlaxoSmithKline (Harlow, UK)[32] and maintained as described previously. We purchased 5×FAD mice from Jackson Labs (Stock number. 34840-JAX). Because APP/PS1 and 5xFAD mice show sex differences in disease progression, we used only male mice. To examine possible therapeutic effect of N-AS and aspirin in APP/PS1 mice, the N-AS (30 mg kg^−1, Sigma-Aldrich, 01912) was injected daily s.c. for 8 weeks to 7-months-old APP/PS1 mice until the age of 9 months, and aspirin (2 mg kg^−1, Sigma-Aldrich, A5376)[33] was administrated orally to 7-months-old APP/PS1 mice for 8 weeks. Also, to confirm possible therapeutic efficacy of N-AS in 5×FAD, the N-AS (30 mg kg^−1, Sigma-Aldrich, 01912) was injected daily s.c. for 4 weeks to 3-months-old 5×FAD mice until the age of 4 months. Block randomization method was used to allocate the animals to experimental groups. To eliminate the bias, we were blinded in experimental progress such as data collection and data analysis. Mice were housed at temperature of 22 °C and a 12 h day/12 h night cycle with free access to tap water and food pellets. All protocols were approved by the Kyungpook National University Institutional Animal Care and Use Committee.\nBrain microglia polarity and immune cells in brain and blood were analyzed by flow cytometry. Cells from WT, APP/PS1, and APP/PS1 treated with N-AS mice brain were prepared as previously described with minor modifications. Brains of WT, APP/PS1, and APP/PS1 treated with N-AS mice were dissected and immediately transferred in ice-cold HBSS (Gibco). After gentle mincing, the brain was digested in a HBSS solution containing collagenase P (0.2 mg ml^−1, Roche), dispase II (0.8 mg ml^−1, Roche), DNase I (0.01 mg ml^−1, Roche), and collagenase A (0.3 mg ml^−1, Roche) at 37 °C for 1 h under gentle rocking. Digestion was stopped by adding FBS (Gibco) on ice. The supernatants were centrifuged at 250×g for 10 min at 4 °C. The pellet was resuspended in 25% BSA (Gibco)/PBS (Gibco) for myelin removal. Following a centrifugation step at 3000×g for 30 min at 4 °C, the myelin containing supernatant was discarded. The cell pellets were then resuspended in 1 ml of HBSS and filtered through a 40 μm mesh, followed by a washing step in HBSS. The cell pellets were resuspended in 1 ml of red blood cell lysis buffer (BD Biosciences) and incubated at RT for 10 min for lysis of erythrocytes. Subsequently, 2 ml of MACs buffer (Miltenyl Biotec, 130-091-222) was added and centrifuged at 250×g for 10 min at 4 °C. Cells from WT, APP/PS1, and APP/PS1 treated with N-AS mice blood were prepared as previously described with minor modifications. Blood was collected in sodium-heparin tube (BD, 367871) by cardiac puncture. Red blood cells were lysed once at 4 °C for 10 min in 0.15 M NH4Cl ([…] Technologies), washed once with PBS (Gibco), and counted using cell counter (Logos biosystems). […]"}}, "note": "Several values for one entry are separate records, joined by “and”; a condition that tells them apart may be missing. Identical values can stand only once."}
{"smiles": "CCCCCCCCCCCCC/C=C/[C@@H](O)[C@H](CO)NC(C)=O", "note": "[N-AS, N-((2S,3R,E)-1,3-Dihydroxyoctadec-4-en-2-yl)acetamide]", "values": [{"measurement": "binding velocity (Vbinding)", "setting": "COX2 N181A", "value": "0.489 nM/min and 0.461 nM/min and 0.240 nM/min"}, {"measurement": "microglia containing co-stained lysosomes and Aβ", "setting": "APP/PS1 mice [1]", "value": "increased number of microglia containing co-stained lysosomes and Aβ"}, {"measurement": "anti-inflammatory monocytes in blood", "setting": "APP/PS1 mice [2]; N-AS vs vehicle APP/PS1", "value": "increased anti-inflammatory monocytes"}, {"measurement": "macrophages and pro-inflammatory monocytes in blood", "setting": "APP/PS1 mice [2]; N-AS vs vehicle APP/PS1", "value": "decreased macrophages and pro-inflammatory monocytes"}, {"measurement": "neutrophils in blood", "setting": "APP/PS1 mice [2]; N-AS vs vehicle APP/PS1", "value": "neutrophils showed no differences between the groups"}, {"measurement": "Lin- CD11b+ F4/80hi", "setting": "APP/PS1 mice [2]; blood, APP/PS1 + N-AS, sFig 5e", "value": "0.31 and 0.35 and 0.29 and 0.33 and 0.3"}, {"measurement": "CD11b+ CD115+ Ly6Chi", "setting": "APP/PS1 mice [2]; blood, APP/PS1 + N-AS, sFig 5f", "value": "0.3325 and 0.21 and 0.4 and 0.265 and 0.235 and 0.305"}, {"measurement": "CD11b+ CD115+ Ly6Clow", "setting": "APP/PS1 mice [2]; blood, APP/PS1 + N-AS, sFig 5f", "value": "0.32 and 0.295 and 0.285 and 0.3075"}, {"measurement": "CD115low Ly6Chi Ly6Ghi", "setting": "APP/PS1 mice [2]; blood, APP/PS1 + N-AS, sFig 5g", "value": "3.9 and 4.5 and 3.15 and 4.65 and 3 and 4.1"}, {"measurement": "B220+ B cell", "setting": "APP/PS1 mice [2]; blood, APP/PS1 + N-AS, sFig 5i", "value": "5.915 and 5.6 and 6.23 and 6.0725"}, {"measurement": "CD4+ T cell", "setting": "APP/PS1 mice [2]; blood, APP/PS1 + N-AS, sFig 5h", "value": "3.42 and 3.21 and 3.63 and 3.525"}]}
